Earlier results in patent US20020155136A1, “MEDICINE CONTAINING YOHIMBINE AND ARGININE FOR TREATING ERECTILE DYSFUNCTION” (priority 1997, published 2002).

Assays:
erectile dysfunction = conditions: 2800 mg per day; Zorgniotti and Lizza 1994
[1] = test system: impotence of psychogenic origin

N=C(N)NCCC[C@H](N)C(=O)O [L-arginine]
favourable effect on erectile dysfunction, proportion of cases (erectile dysfunction): approximately 40 % of cases

COC(=O)[C@@H]1[C@H]2C[C@H]3c4[nH]c5ccccc5c4CCN3C[C@@H]2CC[C@@H]1O [yohimbine]
side effects observed ([1]; for relatively large doses, The Medical Letter 1995): vertigo, anxiety, nervousness, headaches, insomnia and an increase in arterial pressure
improvements, proportion of cases ([1]; impotence of psychogenic origin, published studies, results controversial): 35 to 45 % of cases
